How the values were obtained:
[1] = biological target: mDUSP-H1 (DUSP-H1 from monkeypox virus) (Monkeypox virus, UniProt A0A7H0DN78); test: biochemical; type: biochemical
[2] = tested on: normal human cell lines; conditions: cited from earlier work
[3] = tested on: HEK293; conditions: cited from earlier work
[4] = tested on: human dermal fibroblasts (HDF); conditions: cited from earlier work

mDUSP-H1 (DUSP-H1 from monkeypox virus), sequence (A0A7H0DN78 whole entry, looked up): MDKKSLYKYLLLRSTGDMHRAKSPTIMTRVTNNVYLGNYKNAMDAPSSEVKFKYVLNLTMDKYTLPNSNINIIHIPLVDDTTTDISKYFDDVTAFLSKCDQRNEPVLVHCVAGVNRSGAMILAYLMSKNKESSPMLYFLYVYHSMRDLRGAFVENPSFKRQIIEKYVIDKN

Structure (SMILES) | mDUSP-H1 reactivity compared to the DMSO control [1] | IC50 [1] | further results
C[C@@H]1O[C@@H](Oc2c(-c3ccc(O)c(O)c3)oc3cc(O)cc(O)c3c2=O)[C@H](O)[C@H](O)[C@H]1O [Quercitrin] | relatively unchanged |  | inhibitory activity against mDUSP-H1 (in words) [1]: minimal inhibition
COc1ccc(-c2cc(=O)c3c(O)c(OC)c(O[C@@H]4O[C@H](CO[C@@H]5O[C@@H](C)[C@H](O)[C@@H](O)[C@H]5O)[C@@H](O)[C@H](O)[C@H]4O)cc3o2)cc1 [Pectolinarin] | relatively unchanged |  | 
COc1cc2oc(-c3ccc(O)c(O)c3)cc(=O)c2c(O)c1OC [Cirsiliol] | relatively unchanged |  | 
O=c1c(O)c(-c2cc(O)c(O)c(O)c2)oc2cc(O)cc(O)c12 [Myricetin] | significantly reduced reactivity |  | IC50 [2]: > 100 µM; IC50 [3]: > 100 µM; IC50 [4]: > 100 µM
O=c1cc(-c2ccc(O)cc2)oc2c(-c3c(O)cc(O)c4c(=O)cc(-c5ccc(O)cc5)oc34)c(O)cc(O)c12 [Cupressuflavone] | significantly reduced reactivity | 11.1 ± 0.18 µM | 
Oc1cc(O)c2c(c1)O[C@@H](c1cc(O)c(O)c(O)c1)[C@H](O)C2 [(−)-Gallocatechin] | significantly reduced reactivity | 9.56 ± 0.32 µM | IC50 [2]: > 100 µM; non-toxic concentration [2]: ≤ 100 µM
O=C(O[C@@H]1Cc2c(O)cc(O)cc2O[C@@H]1c1cc(O)c(O)c(O)c1)c1cc(O)c(O)c(O)c1 [(−)-Epigallocatechin gallate] | significantly reduced reactivity | 14 ± 0.35 µM | 
COc1ccc(-c2cc(=O)c3c(O)cc(O)cc3o2)cc1O [Diosmetin] | relatively unchanged |  | inhibitory activity against mDUSP-H1 (in words) [1]: no significant inhibitory activity
O=c1c(O)c(-c2ccc(O)cc2)oc2c(O)c(O)cc(O)c12 [Herbacetin] | significantly reduced reactivity | 12.71 ± 0.08 µM | 
C[C@@H]1O[C@@H](O[C@H]2[C@H](Oc3cc(O)c4c(c3)O[C@H](c3ccc(O)cc3)CC4=O)O[C@H](CO)[C@@H](O)[C@@H]2O)[C@H](O)[C@H](O)[C@H]1O [Naringin] | relatively unchanged |  | inhibitory activity against mDUSP-H1 (in words) [1]: little to no activity
O=c1cc(-c2ccccc2)oc2cc(O)c(O)c(O)c12 [Baicalein] | significantly reduced reactivity | 11.2 ± 0.14 µM | 

Source: PMC12344671 (Journal of Enzyme Inhibition and Medicinal Chemistry, 2025)
